How the values were obtained:
Assay type in all cases: functional
[1] = test system: SK-MEL-2; assay: Cytotoxicity against Homo sapiens (human) SK-MEL-2 assessed as cell growth at 10 uM after 48 hr by SRB assay relative to control; details: SK-MEL-2, 48 h, read-out: Activity
[2] = test system: ACHN; assay: Cytotoxicity against Homo sapiens (human) ACHN assessed as cell growth at 10 uM after 48 hr by SRB assay relative to control; details: read-out: Activity
[3] = test system: SK-MEL-5; assay: Cytotoxicity against Homo sapiens (human) SK-MEL-5 assessed as cell growth at 10 uM after 48 hr by SRB assay relative to control; details: SK-MEL-5, 48 h, read-out: Activity
[4] = test system: DU-145; assay: Cytotoxicity against Homo sapiens (human) DU145 assessed as cell growth at 10 uM after 48 hr by SRB assay relative to control; details: DU-145, 48 h, read-out: Activity
[5] = test system: SF-539; assay: Cytotoxicity against Homo sapiens (human) SF539 assessed as cell growth at 10 uM after 48 hr by SRB assay relative to control; details: SF-539, 48 h, read-out: Activity
[6] = test system: OVCAR-3; assay: Cytotoxicity against Homo sapiens (human) OVCAR3 assessed as cell growth at 10 uM after 48 hr by SRB assay relative to control; details: OVCAR-3, 48 h, read-out: Activity
[7] = test system: NCI-H460; assay: Cytotoxicity against Homo sapiens (human) NCI-H460 assessed as cell growth at 10 uM after 48 hr by SRB assay relative to control; details: NCI-H460, 48 h, read-out: Activity
[8] = Cytotoxicity against Homo sapiens (human) NCI-ADR-RES assessed as cell growth at 10 uM after 48 hr by SRB assay relative to control; details: read-out: Activity
[9] = test system: EKVX; assay: Cytotoxicity against Homo sapiens (human) EKVX assessed as cell growth at 10 uM after 48 hr by SRB assay relative to control; details: read-out: Activity
[10] = test system: NCI-H226; assay: Cytotoxicity against Homo sapiens (human) NCI-H226 assessed as cell growth at 10 uM after 48 hr by SRB assay relative to control; details: NCI-H226, 48 h, read-out: Activity
[11] = test system: TK-10; assay: Cytotoxicity against Homo sapiens (human) TK10 assessed as cell growth at 10 uM after 48 hr by SRB assay relative to control; details: TK-10, 48 h, read-out: Activity
[12] = test system: SNB-19; assay: Cytotoxicity against Homo sapiens (human) SNB19 assessed as cell growth at 10 uM after 48 hr by SRB assay relative to control; details: SNB-19, 48 h, read-out: Activity
[13] = test system: SF-268; assay: Cytotoxicity against Homo sapiens (human) SF268 assessed as cell growth at 10 uM after 48 hr by SRB assay relative to control; details: SF-268, 48 h, read-out: Activity
[14] = test system: RPMI-8226; assay: Cytotoxicity against Homo sapiens (human) RPMI8226 assessed as cell growth at 10 uM after 48 hr by SRB assay relative to control; details: RPMI-8226, 48 h, read-out: Activity
[15] = test system: BT-549; assay: Cytotoxicity against Homo sapiens (human) BT549 assessed as cell growth at 10 uM after 48 hr by SRB assay relative to control; details: BT-549, 48 h, read-out: Activity
[16] = test system: MDA-MB-435; assay: Cytotoxicity against Homo sapiens (human) MDA-MB-435 assessed as cell growth at 10 uM after 48 hr by SRB assay relative to control; details: MDA-MB-435, 48 h, read-out: Activity
[17] = test system: A549; assay: Cytotoxicity against Homo sapiens (human) A549 assessed as cell growth at 10 uM after 48 hr by SRB assay relative to control; details: A549, 48 h, read-out: Activity
[18] = test system: CAKI-1; assay: Cytotoxicity against Homo sapiens (human) Caki1 assessed as cell growth at 10 uM after 48 hr by SRB assay relative to control; details: CAKI-1, 48 h, read-out: Activity
[19] = test system: MOLT-4; assay: Cytotoxicity against Homo sapiens (human) MOLT4 assessed as cell growth at 10 uM after 48 hr by SRB assay relative to control; details: MOLT-4, 48 h, read-out: Activity
[20] = test system: HT-29; assay: Cytotoxicity against Homo sapiens (human) HT-29 assessed as cell growth at 10 uM after 48 hr by SRB assay relative to control; details: HT-29, 48 h, read-out: Activity
[21] = test system: CCRF-CEM; assay: Cytotoxicity against Homo sapiens (human) CCRF-CEM assessed as cell growth at 10 uM after 48 hr by SRB assay relative to control; details: read-out: Activity
[22] = test system: RXF 393; assay: Cytotoxicity against Homo sapiens (human) RXF393 assessed as cell growth at 10 uM after 48 hr by SRB assay relative to control; details: RXF 393, 48 h, read-out: Activity
[23] = test system: MDA-MB-468; assay: Cytotoxicity against Homo sapiens (human) MDA-MB-468 assessed as cell growth at 10 uM after 48 hr by SRB assay relative to control; details: MDA-MB-468, 48 h, read-out: Activity
[24] = test system: SK-MEL-28; assay: Cytotoxicity against Homo sapiens (human) SK-MEL-28 assessed as cell growth at 10 uM after 48 hr by SRB assay relative to control; details: SK-MEL-28, 48 h, read-out: Activity
[25] = test system: UACC-62; assay: Cytotoxicity against Homo sapiens (human) UACC62 assessed as cell growth at 10 uM after 48 hr by SRB assay relative to control; details: UACC-62, 48 h, read-out: Activity
[26] = test system: OVCAR-5; assay: Cytotoxicity against Homo sapiens (human) OVCAR5 assessed as cell growth at 10 uM after 48 hr by SRB assay relative to control; details: OVCAR-5, 48 h, read-out: Activity
[27] = test system: HL-60(TB); assay: Cytotoxicity against Homo sapiens (human) HL-60(TB) assessed as cell growth at 10 uM after 48 hr by SRB assay relative to control; details: HL-60, 48 h, read-out: Activity
[28] = test system: M14; assay: Cytotoxicity against Homo sapiens (human) M14 assessed as cell growth at 10 uM after 48 hr by SRB assay relative to control; details: M14, 48 h, read-out: Activity
[29] = test system: HCT-116; assay: Cytotoxicity against Homo sapiens (human) HCT116 assessed as cell growth at 10 uM after 48 hr by SRB assay relative to control; details: HCT-116, 48 h, read-out: Activity
[30] = test system: SW-620; assay: Cytotoxicity against Homo sapiens (human) SW620 assessed as cell growth at 10 uM after 48 hr by SRB assay relative to control; details: SW-620, 48 h, read-out: Activity
[31] = test system: OVCAR-8; assay: Cytotoxicity against Homo sapiens (human) OVCAR8 assessed as cell growth at 10 uM after 48 hr by SRB assay relative to control; details: OVCAR-8, 48 h, read-out: Activity
[32] = test system: SK-OV-3; assay: Cytotoxicity against Homo sapiens (human) SKOV3 assessed as cell growth at 10 uM after 48 hr by SRB assay relative to control; details: SK-OV-3, 48 h, read-out: Activity

| Structure (SMILES) | growth at 10 µM [1] [%] | growth at 10 µM [2] [%] | growth at 10 µM [3] [%] | growth at 10 µM [4] [%] | growth at 10 µM [5] [%] | growth at 10 µM [6] [%] | growth at 10 µM [7] [%] | growth at 10 µM [8] [%] | growth at 10 µM [9] [%] | growth at 10 µM [10] [%] | growth at 10 µM [11] [%] | growth at 10 µM [12] [%] | growth at 10 µM [13] [%] | growth at 10 µM [14] [%] | growth at 10 µM [15] [%] | growth at 10 µM [16] [%] | growth at 10 µM [17] [%] | growth at 10 µM [18] [%] | growth at 10 µM [19] [%] | growth at 10 µM [20] [%] | other results |
| --- | --- | --- | --- | --- | --- | --- | --- | --- | --- | --- | --- | --- | --- | --- | --- | --- | --- | --- | --- | --- | --- |
| CC1=NN(C(=O)c2sc3nnc(-c4ccccc4)c(-c4ccccc4)c3c2O)C(=O)C1 | 110 | 73.2 | 80.2 | 97.8 | 109 | 84.7 | 52.2 | 16 | 74.3 | 91.9 | 103 | 60.7 | 88.3 | 59.3 | 104 | 83.7 | 84.5 | 31 | 67.8 | 119 | growth at 10 µM [21]: 49.5%; growth at 10 µM [22]: 95.6%; growth at 10 µM [23]: 80.5%; growth at 10 µM [24]: 83.5%; growth at 10 µM [25]: 77.4%; growth at 10 µM [26]: 117%; growth at 10 µM [27]: 69.4%; growth at 10 µM [28]: 87.4%; growth at 10 µM [29]: 89.8%; growth at 10 µM [30]: 79.4%; growth at 10 µM [31]: 87%; growth at 10 µM [32]: 90.6% |
| Oc1c(-c2nnc(-c3ccc(Cl)cc3)o2)sc2nnc(-c3ccccc3)c(-c3ccccc3)c12 | 87.1 | 54 | 53.7 | 71.9 | 55 | 26 | 27.4 | 15.5 | 58.5 | 67.2 | 59 | 43.9 | 55.2 | 40.4 | 56 | 58.6 | 51.2 | 24.5 | 35.8 | 91.2 | growth at 10 µM [21]: 27.6%; growth at 10 µM [22]: 72.3%; growth at 10 µM [23]: 44.6%; growth at 10 µM [24]: 71.8%; growth at 10 µM [25]: 38%; growth at 10 µM [26]: 84.8%; growth at 10 µM [27]: 52.5%; growth at 10 µM [28]: 55.3%; growth at 10 µM [29]: 19.3%; growth at 10 µM [30]: 35.6%; growth at 10 µM [31]: 46.1%; growth at 10 µM [32]: 61.9% |
| CCOC(=O)c1c(Nc2ccc(S(N)(=O)=O)cc2)nnc(-c2ccccc2)c1-c1ccccc1 | 123 | 97.6 | 94.6 | 120 | 108 | 118 | 108 | 96.8 | 105 | 102 | 108 | 108 | 105 | 80.9 | 95 | 107 | 90.9 | 83.8 | 78.2 | 118 | growth at 10 µM [21]: 81.8%; growth at 10 µM [22]: 109%; growth at 10 µM [23]: 97.9%; growth at 10 µM [24]: 107%; growth at 10 µM [25]: 90.2%; growth at 10 µM [26]: 116%; growth at 10 µM [27]: 71.2%; growth at 10 µM [28]: 104%; growth at 10 µM [29]: 93.3%; growth at 10 µM [30]: 105%; growth at 10 µM [31]: 99.8%; growth at 10 µM [32]: 108% |
